Experiment [1] relates to dengue virus type 2. Briefly: Antiviral activity against Dengue virus 2 infected in human Huh-7 cells assessed as clearance of viral RNA relative to control. More on the design: concentration or dose not given beside the values. Format: functional.
Experiment [2] has as its system dengue virus type 2. As to the kind of experiment: Antiviral activity Dengue virus 2 by cell based assay. The experiment is classed as functional, organism-based.
A further experiment deals with dengue virus type 4. Briefly: Antiviral activity Dengue virus 4 by cell based assay. The experiment is classed as functional, organism-based.
The subject of a further experiment is dengue virus type 3. As to the kind of experiment: Antiviral activity Dengue virus 3 by cell based assay. Format: functional, organism-based.
The subject of experiment [3] is dengue virus type 2. Briefly: Antiviral activity Dengue virus 2 D2Y10 by cell based assay. Format: functional, organism-based.
The next experiment concerns Zika virus. Briefly: Antiviral activity Zika virus by cell based assay. The experiment is classed as functional, organism-based.
The test system of another experiment is dengue virus type 1. Briefly: Antiviral activity Dengue virus 1 by cell based assay. The experiment is classed as functional, organism-based.
Experiment [4] relates to dengue virus type 2. Briefly: Antiviral activity against Dengue virus 2 infected in human Huh-7 cells assessed as inhibition of plaque formation relative to control. Format: functional.
In experiment [5] the test system is dengue virus type 2. As to the kind of experiment: Antiviral activity against Dengue virus 2 D2Y10 infected in human THP-1 cells assessed as inhibition of secondary antibody dependent enhancement-driven infection relative to control. The experiment is classed as functional.
The test system of experiment [6] is dengue virus type 2. Briefly: Antiviral activity against Dengue virus 2 infected in human Huh-7 cells assessed as reduction in plaque reduction relative to control. The experiment is classed as functional. More on the design: scale not given: the % may be the effect or the level left.
Experiment [7] relates to dengue virus type 2. As to the kind of experiment: Antiviral activity against Dengue virus 2 infected in human Huh-7 cells assessed as clearance of viral RNA at 10 uM. Format: functional, organism-based.
Experiment [8] has as its system dengue virus type 2. Briefly: Antiviral activity against Dengue virus 2 infected in human Huh-7 cells assessed as clearance of viral RNA at 100 uM. Format: functional, organism-based.

Experimental findings from ChEMBL document CHEMBL5505984, “Carbazole to indolazepinone scaffold morphing leads to potent cell-active dengue antivirals” (Eur J Med Chem, 2024) are described below.

The structures appear in SMILES notation. pEC50: −log10 of the molar value. Several values for one entry are separate records, joined by “and”; a condition that tells them apart may be missing. Equal entries are not always repeated. Activity calls are given as the source filed them. No cut-off for these calls is given here.

The term pEC50 denotes −log10 of the EC50, conventionally taken in molar units. Consider `N/C(=N\O)c1cccc(NC(=O)c2nn(Cc3cccc(Br)c3)c3ccc(-c4cccc(/C(N)=N/O)c4)cc23)c1`, for which the outcome in the experiment with dengue virus type 2 [1] was inactive. Also, the pEC50 in the experiment on dengue virus type 2 [2] was 5.66.

On to `N/C(=N\O)c1ccc(CN2CCc3cn(Cc4ccc(Br)cc4)c4cc(-c5cccc(/C(N)=N/O)c5)cc(c34)C2=O)cc1`, for which the pEC50 with dengue virus type 4 is 6.02; in the experiment on dengue virus type 3, 6.92; in the experiment on dengue virus type 2 [3], 7.00; with Zika virus it was 5.75; with dengue virus type 2 [2], 7.00; with dengue virus type 1, 5.90. In addition, the Activity in the experiment on dengue virus type 2 [1] is over 95%. The “inhibition (INH)” value with dengue virus type 2 [4] worked out at 97%; in the experiment with dengue virus type 2 [5], 100%.

In the case of `N/C(=N\O)c1cccc(CNC(=O)c2cn(Cc3cccc(Br)c3)c3cc(-c4cccc(/C(N)=N/O)c4)ccc23)c1`, the Activity in the experiment on dengue virus type 2 [1] was over 95%. Besides, the pEC50 in the experiment on dengue virus type 2 [2] is 5.16.

As to `N/C(=N\O)c1cccc(-c2cc3c4c(cn(Cc5cccc(Br)c5)c4c2)CCN(Cc2ccc(/C(N)=N/O)s2)C3=O)c1`, the Activity in the experiment with dengue virus type 2 [6] is under 85%.

As to `N/C(=N\O)c1cccc(NC(=O)c2cn(CCn3cc(Br)cn3)c3ccc(-c4cccc(/C(N)=N/O)c4)cc23)c1`, the pEC50 in the experiment with dengue virus type 2 [2] was 5.74. In the experiment with dengue virus type 2 [7], the result was inactive.

As for `N/C(=N\O)c1cccc(CN2CCc3cn(Cc4cccc(Br)c4)c4cc(-c5cccc(/C(N)=N/O)c5)cc(c34)C2=O)c1`, the Activity in the experiment with dengue virus type 2 [1] is recorded as over 95%. This compound gave a pEC50 in the experiment with dengue virus type 2 [2] of 5.87.

On to `N/C(=N\O)c1cccc(CNC(=O)c2cn(Cc3cccc(Br)c3)c3ccc(-c4cccc(/C(N)=N/O)c4)cc23)c1`, for which the Activity in the experiment on dengue virus type 2 [1] is listed as over 95%. This compound also showed a pEC50 in the experiment on dengue virus type 2 [2] of 6.00.

As to `N/C(=N\O)c1cccc(-c2ccc3c(C(=O)N4CCN(c5cccc(/C(N)=N/O)c5)CC4)cn(Cc4ccc(Br)nc4)c3c2)c1`, the outcome in the experiment with dengue virus type 2 [8] was inactive. For the same compound, in the experiment with dengue virus type 2 [2], the pEC50 was 6.00.

Consider `N/C(=N\O)c1cccc(-c2ccc3c(C(=O)N4CCN(c5cccc(/C(N)=N/O)c5)CC4)cn(Cc4cccc(Br)c4)c3c2)c1`, for which, in the experiment on dengue virus type 2 [8], the outcome was inactive. Further, the negative-log EC50 (pEC50) in the experiment with dengue virus type 2 [2] was 5.91.

Consider `C#C[C@@]1(O)[C@H](O)[C@@H](CO)O[C@H]1n1ccc2c(N)ncnc21`, for which the pEC50 in the experiment on dengue virus type 4 is 6.96; with dengue virus type 3 it was 6.06; in the experiment with dengue virus type 2 [3] it was 6.11; in the experiment on Zika virus, 6.92; in the experiment with dengue virus type 2 [2], 6.19; in the experiment on dengue virus type 1, 6.07. Moreover, the “inhibition (INH)” value with dengue virus type 2 [4] and in the experiment with dengue virus type 2 [5] was 100% throughout.

On to `N/C(=N\O)c1ccc(CNC(=O)c2cn(Cc3cccc(Br)c3)c3ccc(-c4cccc(/C(N)=N/O)c4)cc23)cc1`, for which the Activity in the experiment on dengue virus type 2 [1] is reported as over 95%. In the experiment on dengue virus type 2 [2], this compound had a pEC50 of 5.64.

On to `N/C(=N\O)c1cccc(NC(=O)c2cn(Cc3cccc(Br)c3)c3ccc(-c4cccc(/C(N)=N/O)c4)cc23)c1`, for which the Activity entry in the experiment on dengue virus type 2 [1] is “>=95% and >95%”. Also, the pEC50 with dengue virus type 2 [2] was 5.74.

As to `N/C(=N\O)c1ccc(CN2CCc3cn(Cc4ccc(Br)nc4)c4cc(-c5cccc(/C(N)=N/O)c5)cc(c34)C2=O)cc1`, the Activity with dengue virus type 2 [1] is over 95%. For the same compound, the pEC50 in the experiment with dengue virus type 2 [2] is 6.02.

Consider `N/C(=N\O)c1ccc(CN2CCc3cn(Cc4cccc(Br)c4)c4cc(-c5ccc(/C(N)=N/O)cc5)cc(c34)C2=O)cc1`, for which the Activity with dengue virus type 2 [6] is under 85%.

As for `N/C(=N\O)c1ccc(CN2CCc3cn(Cc4ccc(Br)cc4)c4cc(-c5ccc(/C(N)=N/O)s5)cc(c34)C2=O)cc1`, the pEC50 was 5.65 in the experiment with dengue virus type 4; 6.80 in the experiment with dengue virus type 3; 6.48 in the experiment on dengue virus type 2 [3]; 5.85 with Zika virus; 6.21 in the experiment with dengue virus type 2 [2]; 6.10 with dengue virus type 1. For the same compound, the Activity with dengue virus type 2 [1] was over 95%. Moreover, the “inhibition (INH)” value with dengue virus type 2 [4] is on record as 100%; with dengue virus type 2 [5], 60%.

As for `N/C(=N\O)c1cccc(-c2ccc3c(C(=O)N4CCN(c5cccc(/C(N)=N/O)c5)CC4)cn(Cc4ccc(Br)cc4)c3c2)c1`, the outcome in the experiment on dengue virus type 2 [8] was inactive. Moreover, the pEC50 with dengue virus type 2 [2] was 5.95.

`N/C(=N\O)c1cccc(NC(=O)c2nn(Cc3cccc(Br)c3)cc2NC(=O)c2cccc(/C(N)=N/O)c2)c1` had a negative logarithm of the EC50 (pEC50) in the experiment on dengue virus type 2 [2] of 5.15.

In the case of `N/C(=N\O)c1ccc(CN2CCc3cn(Cc4cccc(Br)c4)c4cc(-c5cccc(/C(N)=N/O)c5)cc(c34)C2=O)cc1`, the pEC50 was 5.91 in the experiment with dengue virus type 4; 5.84 in the experiment with dengue virus type 3; 6.42 in the experiment with dengue virus type 2 [3]; 5.47 with Zika virus; 6.18 in the experiment on dengue virus type 2 [2]; 5.99 in the experiment with dengue virus type 1. In addition, the Activity with dengue virus type 2 [1] is on record as over 95%. In addition, the “inhibition (INH)” value in the experiment with dengue virus type 2 [4] turned out to be 95%; in the experiment with dengue virus type 2 [5], 100%.

In the case of `N/C(=N\O)c1cccc(NC(=O)c2cn(Cc3ccc(Br)cc3)c3ccc(-c4cccc(/C(N)=N/O)c4)cc23)c1`, the Activity in the experiment with dengue virus type 2 [1] is over 95%. Also, the pEC50 in the experiment on dengue virus type 2 [2] was 5.35.
